Values after ≈ are worked out from the molar mass of the structure shown.
How the values were obtained:
Assay in all cases: In vitro antifungal activity (MIC), serial agar dilution method
Type in all cases: cell-based
Details in all cases: Sabouraud dextrose agar, 40 hours at 28° C.
[1] = tested on: Cryptococcus neoformans
Description: (§1) Antifungal activities of representative compounds of the present invention were evaluated in vitro. The minimum inhibitory concentrations (MICs) against various fungi were determined by serial agar dilution method using Sabouraud dextrose agar. Thus, approximately 0.003 ml of fungal suspension containing 10^6 cells/ml was applied to the surface of agar plates containing the test antibiotics. The MIC values recorded after the cultures had been incubated for 40 hours at 28° C. are set forth below in Table 1.

[2] = tested on: Aspergillus fumigatus
Description: as §1

[3] = tested on: Candida albicans
Description: as §1

[4] = tested on: Trichophyton mentagrophytes
Description: as §1

| SMILES | MIC [1] | MIC [2] | MIC [3] | MIC [4] |
| --- | --- | --- | --- | --- |
| CN[C@@H]1[C@H](O[C@@H]2OC[C@@H](O)[C@@H](O)[C@H]2O)[C@@H](O)[C@H](O[C@H]2c3cc(C)c(C(=O)N[C@H](C)C(=O)O)c(O)c3-c3c(cc4c(c3O)C(=O)c3cc(OC)cc(O)c3C4=O)[C@@H]2O)O[C@@H]1C [Example 2, 3'-O-(β-D-Ribopyranosyl)-pradimicin B] | 1.6 µg/mL (≈ 1.9 µM) | 12.5 µg/mL (≈ 14.9 µM) | > 25 µg/mL | 25 µg/mL (≈ 29.7 µM) |
| CN[C@@H]1[C@H](O[C@H]2OC[C@H](O)[C@@H](O)[C@@H]2O)[C@@H](O)[C@H](O[C@H]2c3cc(C)c(C(=O)N[C@H](C)C(=O)O)c(O)c3-c3c(cc4c(c3O)C(=O)c3cc(OC)cc(O)c3C4=O)[C@@H]2O)O[C@@H]1C [Example 1, 3'-O-(β-L-xylopyranosyl)pradimicin B] | 1.6 µg/mL (≈ 1.9 µM) | > 100 µg/mL | 50 µg/mL (≈ 59.5 µM) | > 100 µg/mL |
| CN[C@@H]1[C@H](O[C@@H]2OC[C@H](O)[C@H](O)[C@H]2O)[C@@H](O)[C@H](O[C@H]2c3cc(C)c(C(=O)N[C@H](C)C(=O)O)c(O)c3-c3c(cc4c(c3O)C(=O)c3cc(OC)cc(O)c3C4=O)[C@@H]2O)O[C@@H]1C [Example 3, 3'-O-(α-L-Arabinopyranosyl)pradimicin B] | 1.6 µg/mL (≈ 1.9 µM) | 6.3 µg/mL (≈ 7.49 µM) | 6.3 µg/mL (≈ 7.49 µM) | 6.3 µg/mL (≈ 7.49 µM) |
| CN[C@@H]1[C@H](O)[C@@H](O)[C@H](O[C@H]2c3cc(C)c(C(=O)N[C@H](C)C(=O)O)c(O)c3-c3c(cc4c(c3O)C(=O)c3cc(OC)cc(O)c3C4=O)[C@@H]2O)O[C@@H]1C [Pradimicin B, reference compound] | 0.8 µg/mL (≈ 1.13 µM) | 6.3 µg/mL (≈ 8.89 µM) | 3.1 µg/mL (≈ 4.37 µM) | 6.3 µg/mL (≈ 8.89 µM) |

Results, then the compound that gave them:

| MIC [1] | MIC [2] | MIC [3] | MIC [4] | SMILES |
| --- | --- | --- | --- | --- |
| 0.8 µg/mL (≈ 0.951 µM) | 1.6 µg/mL (≈ 1.9 µM) | 50 µg/mL (≈ 59.5 µM) | 1.6 µg/mL (≈ 1.9 µM) | CN[C@@H]1[C@H](O[C@@H]2OC[C@@H](O)[C@H](O)[C@H]2O)[C@@H](O)[C@H](O[C@H]2c3cc(C)c(C(=O)N[C@H](C)C(=O)O)c(O)c3-c3c(cc4c(c3O)C(=O)c3cc(OC)cc(O)c3C4=O)[C@@H]2O)O[C@@H]1C [Pradimicin A, reference compound] |
| 1.6 µg/mL (≈ 1.87 µM) | 3.1 µg/mL (≈ 3.63 µM) | 25 µg/mL (≈ 29.2 µM) | 1.6 µg/mL (≈ 1.87 µM) | CN[C@@H]1[C@H](O[C@@H]2O[C@H](C)[C@@H](O)[C@H](O)[C@H]2O)[C@@H](O)[C@H](O[C@H]2c3cc(C)c(C(=O)N[C@H](C)C(=O)O)c(O)c3-c3c(cc4c(c3O)C(=O)c3cc(OC)cc(O)c3C4=O)[C@@H]2O)O[C@@H]1C [Example 4, 3'-O-(6-Deoxy-β-D-glucopyranosyl)pradimicin B] |
| 1.6 µg/mL (≈ 1.84 µM) | 3.1 µg/mL (≈ 3.56 µM) | 12.5 µg/mL (≈ 14.4 µM) | 3.1 µg/mL (≈ 3.56 µM) | CN[C@@H]1[C@H](O[C@@H]2O[C@H](CO)[C@@H](O)[C@H](O)[C@H]2O)[C@@H](O)[C@H](O[C@H]2c3cc(C)c(C(=O)N[C@H](C)C(=O)O)c(O)c3-c3c(cc4c(c3O)C(=O)c3cc(OC)cc(O)c3C4=O)[C@@H]2O)O[C@@H]1C [Example 6, 3'-O-β-D-glucopyranosylpradimicin B] |
| 1.6 µg/mL (≈ 1.87 µM) | 3.1 µg/mL (≈ 3.63 µM) | 6.3 µg/mL (≈ 7.37 µM) | 1.6 µg/mL (≈ 1.87 µM) | CN[C@@H]1[C@H](O[C@@H]2O[C@H](C)[C@H](O)[C@H](O)[C@H]2O)[C@@H](O)[C@H](O[C@H]2c3cc(C)c(C(=O)N[C@H](C)C(=O)O)c(O)c3-c3c(cc4c(c3O)C(=O)c3cc(OC)cc(O)c3C4=O)[C@@H]2O)O[C@@H]1C [Example 5, 3'-O-(β-D-Fucopyranosyl)pradimicin B] |

— US5696096A, “Pradimicin derivatives” (Bristol-Myers Squibb Company, priority 1990, dated 1997)
